One test addresses T1, HLA-A2 (Homo sapiens, UniProt P04439, D140Y/D185E/D98H/E176V/E277Q/G131W/G231S/I119V/I121R/I166T/I218V/N151K/N90K/P208A/P217A/Q86G/Q94H/R138H/R169H).
T1 construct: purchased ImmunAware
The experiment in a line: In vitro HLA-I binding assay (bead-captured folded monomers).

Test [1] concerns circulating CD8+ T cells. The experiment in a line: Combinatorial HLA-A2 multimer (MMr) assay, screening round. As to conditions: for Screening round % effector/memory median (range): HLA-A2, effector/memory (non CD45RA+CCR7+) fraction among MMr+CD8+ T cells; for Screening round Frequency median: HLA-A2 MMr+CD8+ T cells out of total CD8+ T cells, frozen/thawed PBMCs, CVB-seropositive healthy adults, median of donors. It counts as cell-based, human.

The subject of test [2] is circulating CD8+ T cells. The experiment in a line: Combinatorial HLA-A2 multimer (MMr) assay, validation round. It counts as cell-based, human. As to conditions: HLA-A2 MMr+CD8+ out of total CD8+ T cells; donors/peptides with <3 MMr+ cells noted as 1.0E-7.
[3] abbreviates: in silico predicted HLA-A2-binding peptides, fig. S2D.

Like-named read-outs stand apart in the source and are kept apart here.

For the sequence KLPDALSQM, the “In vitro binding to HLA-A2 (in words)” value at HLA-A2 (setting [3]) is recorded as “did not confirm as binders”. On to “IMIKSMPAL [CVB1-2-5 60-68, HLA-A2, in silico]”, for which, in the test on circulating CD8+ T cells [1], the “Screening round % effector/memory median (range)” value is listed as 26 (0-70) % and the “Screening round Frequency median” value is 2.2 E-5. In addition, the “Validation round Frequency median” value in the test on circulating CD8+ T cells [2] is 1.0 E-7. Consider “VMGDALGSV [ZnT8245-253 peptide homologous to CVB1 150-158]”, for which the “In vitro binding to HLA-A2 (in words)” value at HLA-A2 (setting [3]) was “did not confirm as binders”. In the case of VIASYPWPI, the “In vitro binding to HLA-A2 (in words)” value at HLA-A2 is listed as “did not confirm as binders”. Turning to “VMIKSLPAL [CVB4-6 60-68, HLA-A2, in silico]”, in the test on circulating CD8+ T cells [1], the “Screening round % effector/memory median (range)” value is given as 20 (20-20) % and the “Screening round Frequency median” value is 5.3 E-6. “GIIYIIYKL [previously reported CVB peptide, IEDB #20311]”: the “In vitro binding to HLA-A2 (in words)” value at HLA-A2 was “did not confirm as binders”.

Source of the values: PMC10917340, “Coxsackievirus infection induces direct pancreatic β cell killing but poor antiviral CD8^+ T cell responses” (Science Advances, 2024).
